# Experimental data taken from patent US20250171495A1, “MUTLI-TARGETED SERINE PROTEASE INHIBITORS FOR TREATMENT OF CANCER AND VIRAL INFECTION” (Washington University, priority 2023, published 2025).
# How the values were obtained:
# Format in all cases: biochemical
# [1] = biological target: T1, matriptase (Homo sapiens, UniProt Q9Y5Y6); test: HyCoSuL P4-P2 substrate specificity screening, matriptase; conditions: for P2 Position Substrate Activity for matriptase (percent substrate cleavage/proteolysis): residue fixed at P2 position; for P3 Position Various Amino Acids Substrate Activity, matriptase (percent substrate cleavage/proteolysis): residue fixed at P3 position of substrate library; for P4 Position Various Amino Acids Substrate Activity, matriptase (percent substrate proteolysis/cleavage): residue fixed at P4 position of substrate library; for P3 Position Substrate Activity for matriptase (percent substrate cleavage/proteolysis): residue fixed at P3 position
# T1 sequence (Q9Y5Y6 1-855): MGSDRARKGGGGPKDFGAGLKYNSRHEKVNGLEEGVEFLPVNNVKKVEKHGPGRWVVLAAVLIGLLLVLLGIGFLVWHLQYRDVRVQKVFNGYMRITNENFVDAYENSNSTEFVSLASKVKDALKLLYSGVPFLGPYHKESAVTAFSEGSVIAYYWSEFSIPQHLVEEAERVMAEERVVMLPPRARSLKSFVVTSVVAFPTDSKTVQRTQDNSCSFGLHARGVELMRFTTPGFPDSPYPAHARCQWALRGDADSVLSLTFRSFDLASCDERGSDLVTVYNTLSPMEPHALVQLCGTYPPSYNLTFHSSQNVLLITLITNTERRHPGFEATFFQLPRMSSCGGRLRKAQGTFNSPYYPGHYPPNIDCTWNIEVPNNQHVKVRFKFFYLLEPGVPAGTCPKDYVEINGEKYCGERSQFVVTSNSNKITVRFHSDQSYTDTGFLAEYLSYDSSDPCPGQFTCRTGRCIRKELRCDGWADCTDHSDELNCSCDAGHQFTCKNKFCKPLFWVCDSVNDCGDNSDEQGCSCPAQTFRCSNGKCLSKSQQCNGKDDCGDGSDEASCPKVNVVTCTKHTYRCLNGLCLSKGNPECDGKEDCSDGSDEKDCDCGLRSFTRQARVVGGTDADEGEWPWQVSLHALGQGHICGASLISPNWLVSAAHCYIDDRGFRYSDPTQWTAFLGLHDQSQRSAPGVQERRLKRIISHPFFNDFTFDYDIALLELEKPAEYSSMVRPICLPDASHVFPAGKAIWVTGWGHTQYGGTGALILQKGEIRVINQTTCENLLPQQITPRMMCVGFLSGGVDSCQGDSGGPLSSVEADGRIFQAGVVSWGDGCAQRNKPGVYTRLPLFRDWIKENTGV
# [2] = biological target: T2, HGFA (Homo sapiens, UniProt Q04756); test: HyCoSuL P4-P2 substrate specificity screening, HGFA; conditions: for P2 Position Substrate Activity for HGFA (percent substrate cleavage/proteolysis): residue fixed at P2 position; for P3 Position Various Amino Acids Substrate Activity, HGFA (percent substrate cleavage/proteolysis): residue fixed at P3 position of substrate library; for P4 Position Various Amino Acids Substrate Activity, HGFA (percent substrate proteolysis/cleavage): residue fixed at P4 position of substrate library; for P3 Position Substrate Activity for HGFA (percent substrate cleavage/proteolysis): residue fixed at P3 position
# T2 sequence (Q04756 373-655): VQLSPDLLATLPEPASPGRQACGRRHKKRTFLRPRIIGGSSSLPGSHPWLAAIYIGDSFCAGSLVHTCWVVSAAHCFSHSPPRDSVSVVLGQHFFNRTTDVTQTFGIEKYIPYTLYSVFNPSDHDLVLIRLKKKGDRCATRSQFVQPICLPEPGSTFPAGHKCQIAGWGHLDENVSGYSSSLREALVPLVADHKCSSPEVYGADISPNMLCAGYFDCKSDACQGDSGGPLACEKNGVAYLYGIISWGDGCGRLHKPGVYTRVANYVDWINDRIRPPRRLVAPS
# [3] = biological target: T3, hepsin (Homo sapiens, UniProt P05981); test: HyCoSuL P4-P2 substrate specificity screening, hepsin; conditions: for P2 Position Substrate Activity for hepsin (percent substrate cleavage/proteolysis): residue fixed at P2 position; for P3 Position Various Amino Acids Substrate Activity, hepsin (percent substrate cleavage/proteolysis): residue fixed at P3 position of substrate library; for P4 Position Various Amino Acids Substrate Activity, hepsin (percent substrate proteolysis/cleavage): residue fixed at P4 position of substrate library; for P3 Position Substrate Activity for hepsin (percent substrate cleavage/proteolysis): residue fixed at P3 position
# T3 construct: purchased R&D Systems 4776-SE-010
# [4] = biological target: TMPRSS2 (Homo sapiens, UniProt O15393); test: PS-SCL / HyCoSuL substrate specificity screening, TMPRSS2; conditions: for P2 Position Substrate Activity for TMPRSS2 (percent substrate cleavage/proteolysis): residue fixed at P2 position of substrate library; for P3 Position Various Amino Acids Substrate Activity, TMPRSS2 (percent substrate cleavage/proteolysis) / P3 Position Substrate Activity for TMPRSS2 (percent substrate cleavage/proteolysis): residue fixed at P3 position of substrate library
# [5] = P1-Arg HyCoSuL, 100 μM, best recognized amino acid set to 100%
# [6] = best recognized amino acid set to 100%
# [7] = residue fixed at P4 position of substrate library
# [8] = residue fixed at P4 position, P1-Arg HyCoSuL, 100 μM, best recognized amino acid set to 100%
# Sequence of TMPRSS2 (O15393 whole entry): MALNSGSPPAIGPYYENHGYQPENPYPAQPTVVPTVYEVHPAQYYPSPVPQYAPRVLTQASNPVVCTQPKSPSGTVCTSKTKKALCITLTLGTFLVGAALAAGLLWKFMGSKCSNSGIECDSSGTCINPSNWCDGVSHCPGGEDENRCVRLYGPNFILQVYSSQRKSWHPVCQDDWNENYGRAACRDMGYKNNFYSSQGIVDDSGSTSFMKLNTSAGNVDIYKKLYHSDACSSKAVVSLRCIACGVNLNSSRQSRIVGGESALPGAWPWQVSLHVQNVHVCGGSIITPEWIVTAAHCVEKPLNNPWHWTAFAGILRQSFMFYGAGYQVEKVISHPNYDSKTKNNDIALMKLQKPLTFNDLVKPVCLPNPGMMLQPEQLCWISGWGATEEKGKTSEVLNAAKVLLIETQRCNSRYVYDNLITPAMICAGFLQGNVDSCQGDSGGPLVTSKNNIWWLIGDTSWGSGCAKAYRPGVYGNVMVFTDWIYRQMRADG
# T3 sequence (P05981 163-417 limits assumed): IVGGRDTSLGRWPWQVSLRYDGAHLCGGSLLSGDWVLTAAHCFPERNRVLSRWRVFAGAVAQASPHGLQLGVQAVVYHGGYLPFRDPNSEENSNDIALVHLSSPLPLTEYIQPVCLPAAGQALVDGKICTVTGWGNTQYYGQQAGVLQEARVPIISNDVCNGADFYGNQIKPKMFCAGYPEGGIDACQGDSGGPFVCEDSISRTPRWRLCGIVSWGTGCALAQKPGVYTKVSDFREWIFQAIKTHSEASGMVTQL
# T3 sequence (P05981 1-162 partner limits assumed): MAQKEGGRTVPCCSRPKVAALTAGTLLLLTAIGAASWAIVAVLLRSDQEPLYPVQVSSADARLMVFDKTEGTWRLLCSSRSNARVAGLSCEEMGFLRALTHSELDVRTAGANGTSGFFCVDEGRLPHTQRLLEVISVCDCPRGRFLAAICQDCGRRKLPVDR
"P2 Position Substrate Activity for matriptase (percent substrate cleavage/proteolysis) [1, 5] [%]","P3 Position Various Amino Acids Substrate Activity, matriptase (percent substrate cleavage/proteolysis) [1] [%]","P4 Position Various Amino Acids Substrate Activity, matriptase (percent substrate proteolysis/cleavage) [1] [%]","P2 Position Substrate Activity for HGFA (percent substrate cleavage/proteolysis) [2, 5] [%]","P3 Position Various Amino Acids Substrate Activity, HGFA (percent substrate cleavage/proteolysis) [2] [%]","P4 Position Various Amino Acids Substrate Activity, HGFA (percent substrate proteolysis/cleavage) [2] [%]","P2 Position Substrate Activity for hepsin (percent substrate cleavage/proteolysis) [3, 5] [%]","P3 Position Various Amino Acids Substrate Activity, hepsin (percent substrate cleavage/proteolysis) [3] [%]","P4 Position Various Amino Acids Substrate Activity, hepsin (percent substrate proteolysis/cleavage) [3] [%]","P2 Position Substrate Activity for TMPRSS2 (percent substrate cleavage/proteolysis) [4, 6] [%]","P3 Position Various Amino Acids Substrate Activity, TMPRSS2 (percent substrate cleavage/proteolysis) [4] [%]","P4 Position Various Amino Acids Substrate Activity, TMPRSS2 (percent substrate proteolysis/cleavage) [4, 7] [%]","P3 Position Substrate Activity for matriptase (percent substrate cleavage/proteolysis) [1, 5] [%]","P4 Position Substrate Activity for matriptase (percent substrate cleavage/proteolysis) [1, 8] [%]","P3 Position Substrate Activity for HGFA (percent substrate cleavage/proteolysis) [2, 5] [%]","P4 Position Substrate Activity for HGFA (percent substrate cleavage/proteolysis) [2, 8] [%]","P3 Position Substrate Activity for hepsin (percent substrate cleavage/proteolysis) [3, 5] [%]","P4 Position Substrate Activity for hepsin (percent substrate cleavage/proteolysis) [3, 8] [%]","P3 Position Substrate Activity for TMPRSS2 (percent substrate cleavage/proteolysis) [4, 6] [%]","P4 Position Substrate Activity for TMPRSS2 (percent substrate cleavage/proteolysis) ([4]; residue fixed at P4 position of substrate library, best recognized amino acid set to 100%) [%]",Compound
8,18,29,8.33,9.51,11.66,51.85,16.77,43.08,28.86,19.38,34.19,,,,,,,,,CC(C)[C@H](N)C(=O)O [L-Val]
0,2,6,0.00,9.84,7.11,0.00,48.09,18.44,0.00,0.00,27.00,,,,,,,,,D-Ala
0,8,18,0.00,,,0.00,,,0.00,,,7.82,17.66,29.10,23.20,66.08,44.37,0.00,24.43,D-Arg
0,2,7,0.00,15.16,7.38,0.00,38.75,18.48,0.00,0.00,19.65,,,,,,,,,D-Asn
0,0,1,0.00,5.37,2.25,0.00,17.18,1.98,0.00,20.28,18.22,,,,,,,,,D-Asp
0,7,7,0.00,,8.03,0.00,,20.13,0.00,,20.76,7.43,,13.84,,97.80,,10.18,,D-Gln
0,2,1,0.00,3.61,2.62,0.00,34.55,2.98,0.00,12.50,23.68,,,,,,,,,D-Glu
0,3,7,0.00,11.09,7.79,0.00,40.09,19.33,0.00,6.35,24.51,,,,,,,,,D-His

Compound,"P2 Position Substrate Activity for matriptase (percent substrate cleavage/proteolysis) [1, 5] [%]","P3 Position Various Amino Acids Substrate Activity, matriptase (percent substrate cleavage/proteolysis) [1] [%]","P4 Position Various Amino Acids Substrate Activity, matriptase (percent substrate proteolysis/cleavage) [1] [%]","P2 Position Substrate Activity for HGFA (percent substrate cleavage/proteolysis) [2, 5] [%]","P3 Position Various Amino Acids Substrate Activity, HGFA (percent substrate cleavage/proteolysis) [2] [%]","P4 Position Various Amino Acids Substrate Activity, HGFA (percent substrate proteolysis/cleavage) [2] [%]","P2 Position Substrate Activity for hepsin (percent substrate cleavage/proteolysis) [3, 5] [%]","P3 Position Various Amino Acids Substrate Activity, hepsin (percent substrate cleavage/proteolysis) [3] [%]","P4 Position Various Amino Acids Substrate Activity, hepsin (percent substrate proteolysis/cleavage) [3] [%]","P2 Position Substrate Activity for TMPRSS2 (percent substrate cleavage/proteolysis) [4, 6] [%]","P3 Position Various Amino Acids Substrate Activity, TMPRSS2 (percent substrate cleavage/proteolysis) [4] [%]","P4 Position Various Amino Acids Substrate Activity, TMPRSS2 (percent substrate proteolysis/cleavage) [4, 7] [%]","P3 Position Substrate Activity for matriptase (percent substrate cleavage/proteolysis) [1, 5] [%]","P4 Position Substrate Activity for matriptase (percent substrate cleavage/proteolysis) [1, 8] [%]","P3 Position Substrate Activity for HGFA (percent substrate cleavage/proteolysis) [2, 5] [%]","P4 Position Substrate Activity for HGFA (percent substrate cleavage/proteolysis) [2, 8] [%]","P3 Position Substrate Activity for hepsin (percent substrate cleavage/proteolysis) [3, 5] [%]","P4 Position Substrate Activity for hepsin (percent substrate cleavage/proteolysis) [3, 8] [%]","P3 Position Substrate Activity for TMPRSS2 (percent substrate cleavage/proteolysis) [4, 6] [%]","P4 Position Substrate Activity for TMPRSS2 (percent substrate cleavage/proteolysis) ([4]; residue fixed at P4 position of substrate library, best recognized amino acid set to 100%) [%]"
CC(C)CC[C@H](N)C(=O)O [L-hLeu],5,25,27,72.69,23.44,14.86,14.44,13.84,41.61,8.15,35.41,53.91,,,,,,,,
